Measured values published in the supplement of paper PMC6045584.
± gives the standard deviation of the averaged measurements.

Key:
[1] = compound: C[C@H](CN(C)C)Oc1nc(Nc2cc3cccc(Cl)c3cn2)cnc1C#N; assay: surviving fraction relative to DMSO-only wells; higher = less growth inhibition; details: exposure time: 5 days
In short: (§1)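 Inhibitors at 0.5, 1, 5, 10, 50, 100, 500 and 1000 nM were applied continuously for five days to tumour cell lines seeded in log phase at 250–500 cells per well in 384-well plates 24 hours earlier. Viability was measured by CellTiter-Glo luminescence and expressed as surviving fraction relative to the median of DMSO-only wells. Luminescence was taken after 10 minutes at room temperature.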

BEZ-235 = compound: Cn1c(=O)n(-c2ccc(C(C)(C)C#N)cc2)c2c3cc(-c4cnc5ccccc5c4)ccc3ncc21 [BEZ-235]; assay: as above; details: exposure time: 5 days
In short: as §1

Row | Test System | surviving fraction ([1]; 0.5 nM) | surviving fraction ([1]; 1 nM) | surviving fraction ([1]; 5 nM) | surviving fraction ([1]; 10 nM) | surviving fraction ([1]; 50 nM) | surviving fraction ([1]; 100 nM) | surviving fraction ([1]; 500 nM) | surviving fraction ([1]; 1000 nM) | surviving fraction (BEZ-235; 0.5 nM) | surviving fraction (BEZ-235; 1 nM) | surviving fraction (BEZ-235; 5 nM) | surviving fraction (BEZ-235; 10 nM) | surviving fraction (BEZ-235; 50 nM) | surviving fraction (BEZ-235; 100 nM) | surviving fraction (BEZ-235; 500 nM) | surviving fraction (BEZ-235; 1000 nM)
1 | CCK81 LARGE INTESTINE | 0.681 ± 0.1 | 0.819 ± 0.097 | 0.726 ± 0.09 | 0.739 ± 0.029 | 0.774 ± 0.15 | 0.52 ± 0.084 | 0.349 ± 0.069 | 0.374 ± 0.049 |  |  |  |  |  |  |  | 
2 | G292 BONE | 1.06 ± 0.053 | 1.02 ± 0.012 | 1.05 ± 0.021 | 1.05 ± 0.075 | 1.107 ± 0.0061 | 1.08 ± 0.061 | 0.648 ± 0.046 | 0.43 ± 0.028 | 1.02 ± 0.026 | 0.987 ± 0.027 | 0.974 ± 0.025 | 0.982 ± 0.036 | 0.526 ± 0.032 | 0.357 ± 0.0091 | 0.202 ± 0.0096 | 0.163 ± 0.0093
3 | HCC38 BREAST | 1.25 ± 0.22 | 1.32 ± 0.18 | 1.36 ± 0.28 | 1.3 ± 0.14 | 0.989 ± 0.06 | 0.821 ± 0.23 | 0.125 ± 0.028 | 0.0697 ± 0.013 | 1.33 ± 0.21 | 1.21 ± 0.094 | 1.19 ± 0.037 | 1.2 ± 0.1 | 0.862 ± 0.013 | 0.666 ± 0.035 | 0.291 ± 0.041 | 0.278 ± 0.054
4 | HCC70 BREAST | 1.07 ± 0.06 | 1.11 ± 0.14 | 1.01 ± 0.038 | 1.09 ± 0.034 | 1.1 ± 0.045 | 1.14 ± 0.025 | 0.639 ± 0.086 | 0.191 ± 0.021 | 1.1 ± 0.04 | 1.08 ± 0.075 | 1.02 ± 0.082 | 1.13 ± 0.1 | 0.836 ± 0.1 | 0.599 ± 0.068 | 0.347 ± 0.034 | 0.296 ± 0.025
5 | HMLE3 BREAST | 1 ± 0.081 | 0.949 ± 0.035 | 1.01 ± 0.04 | 0.998 ± 0.056 | 1.07 ± 0.069 | 1.07 ± 0.1 | 0.93 ± 0.076 | 0.735 ± 0.025 | 1.03 ± 0.092 | 0.966 ± 0.069 | 0.961 ± 0.036 | 0.929 ± 0.047 | 0.582 ± 0.035 | 0.315 ± 0.011 | 0.111 ± 0.0049 | 0.0777 ± 0.0078
6 | HMT3552 BREAST | 0.984 ± 0.029 | 1.04 ± 0.043 | 1.08 ± 0.093 | 1.04 ± 0.036 | 1.22 ± 0.018 | 1.19 ± 0.064 | 0.121 ± 0.016 | 0.103 ± 0.01 | 1.09 | 1.05 | 1.01 | 1.02 | 0.681 | 0.466 | 0.186 | 0.191
7 | HS578T BREAST | 0.988 ± 0.17 | 1.02 ± 0.11 | 0.972 ± 0.14 | 1.04 ± 0.11 | 1.05 ± 0.041 | 0.796 ± 0.14 | 0.216 ± 0.028 | 0.191 ± 0.02 | 1.13 ± 0.15 | 0.972 ± 0.15 | 0.997 ± 0.18 | 0.817 ± 0.092 | 0.46 ± 0.028 | 0.384 ± 0.026 | 0.263 ± 0.027 | 0.257 ± 0.02
